In patent US5110935A, “New compounds which are active against the tissue forms of malaria and method of preparation” (Ire-Celltarg, S.A., priority 1988, dated 1992):
Values joined by “and” are separate entries in the source; they are usually repeats but may differ in a detail not shown here. Identical values can stand only once. Like-named read-outs stand apart in the source and are kept apart here.

Legend:
human red cells = assay: Methemoglobin production in human red cells; type: cell-based; details: 1 hour, 37° C.
Protocol: (§15) Two important toxic effects of PQ were assessed on the two derivatives: the hemolytic effect and the conversion of hemoglobin to methemoglobin.
(§16) A+ blood is washed twice in 0.15M phosphatebuffered saline at pH 7.4 containing 20 mM glucose (GPBS), and then resuspended at a concentration of 50% in the same buffer. To this suspension, an equal volume of compound dissolved in GPBS at different concentrations (test), or of GPBS (control) is added. The final hematocrit of the suspension is 25%. After 60 minutes' incubation at 37° C., the concentration of hemoglobin and methemoglobin is determined on the total suspension, and the concentration of hemoglobin present in the supernatant after centrifugation (extracellular hemoglobin) is determined, by the cyanmethemoglobin and benzidine methods (Fairbanks V.F., 1976, in "Fundamentals of Clinical Chemistry, M.W. Tietz Editors, Saunders").

human erythrocytes = details: for Concentration combined with erythrocytes (% initial concentration): human red cells 10^9/ml, 100 μg/ml; for Accumulation in erythrocytes: not told
Protocol: Fresh human blood (A+) on CPDA is washed twice in RPMI medium containing 20 mM glucose at pH 7.4, and then resuspended in the same medium at 37° C. to obtain a 20% suspension of red cells (2×10^9 erythrocytes/ml). To 1 ml of this suspension, 1 ml of a solution of PQ or derivatives at a concentration of 0.250 mM in the same medium at 37° C. is added.
After different incubation times at 37° C., 0.5 ml of sample is withdrawn and then transferred to an Eppendorf tube containing 0.4 ml of silicone oil (Merck, density 1.06 g/ml).
After centrifugation for 30 seconds at 12,000 g, the supernatant and the silicone oil are removed, while the cells in the pellet are lyzed by adding 0.5 ml of water. The quinoline compound present in combination with the cell lysate is then extracted by precipitation of the cell proteins with acetonitrile (0.5 ml) and thereafter analyzed by HPLC under the standard conditions.
The intracellular concentration of quinoline derivative is obtained by subtracting the concentration of compound present in the extracellular medium from the total concentration in the cell lysate. The contaminating extracellular volume is measured using tritiated inulin.

[1] = Hemolytic effect on human red cells; type: cell-based; details: human, red cells, pH 7.4, 1 hour, 37° C., read-out: Hemolysis (% of total hemoglobin concentration); for hemolysis at 1 h, 1000 µM: 1 mM; for hemolysis at 1 h, 5000 µM: 5 mM
Protocol: as §15, §16

[2] = Stability in the presence of fetal calf serum; type: in vitro ADME
Protocol: The influence of serum on the stability of primaquine (PQ) and its derivatives is determined by incubating these compounds at 37° C. at a concentration of 100 μg/ml in 95% fetal calf serum (FCS, Flow Laboratories) or human serum and phosphate-buffered saline (0.15 M PBSA, pH 7.2) as a control. All the solutions are sterilized by filtration on a Millipore filter (Millex GV) of porosity 0.20 μm.
At interval of time, 1-ml samples are withdrawn and the serum proteins are then extracted from them by precipitation with acetonitrile. For this purpose, an identical volume of acetonitrile is added to each sample. After vigorous mixing in a Vortex mixer, the samples are left for 1 hour at 4° C. and protected from light and then centrifuged for 5 minutes at 12,000 g. The supernatants are collected and then analyzed by HPLC (20- to 50-μl aliquot) under the standard conditions.
The results for the stability of primaquine and its two derivatives in the presence of fetal calf serum are recorded in Table 1; the results are expressed as a % of the initial concentration (time 0) after extraction.
^a : The compounds are incubated at 37° C. in the presence of
fetal calf serum (95% final) and then analyzed by spectrophotometry after
(§1) ^b : The results represent the relative concentration of primaquine
(PQ) and of derivatives (PQX) in terms of the incubation time, expressed
as a percentage of the initial concentration (time 0) after extraction

lysosomal enzymes = assay: Hydrolysis in the presence of lysosomal enzymes; type: in vitro ADME, rat; details: for Relative concentration of compound (% of initial concentration): pH 4.5, 37° C., 0 h
Protocol: (§2) The compounds, at a final concentration of 15 μg/ml, are incubated in 50 mM acetate buffer, pH 4.5, at 37° C. in the presence of 5 mM cysteine and a lysosomal enzyme fraction (0.15 mg protein/ml) purified from rat liver.
(§3) The purified lysosomal fraction is prepared according to the method described by Trouet (1974, Meth. Enzymol., 31, 323-334).
(§4) At intervals of time, corresponding samples are taken from the incubation. The enzyme reaction is stopped by adding 10 μl of 10M HCl per ml of sample. A volume of 20 μl is withdrawn and analyzed directly by HPLC under the standard conditions.
(§5) ^a : The compounds are incubated at pH 4.5 in the presence of
(§6) lysosomal enzymes (0.15 mg protein/ml) and 5 mM cysteine, and then
(§7) analyzed by spectrophotometry after HPLC. The initial purity of the
as §1
(§8) (PQ) and derivatives (PQX) in terms of the incubation time, expressed as
(§9) percentage of the initial concentration (time 0) after extraction.

[3] = Hydrolysis in the presence of lysosomal enzymes; type: in vitro ADME, rat; details: rat; for remaining at 1 h / remaining at 2 h / remaining at 3 h / remaining at 6 h / remaining at 24 h: liver lysosomal enzymes, pH 4.5, 37° C., read-out: Relative concentration of compound (% of initial concentration)
Protocol: as §2, §3, §4, §5, §6, §7, §1, §8, §9

[4] = Acute toxicity in mice after a single i.v. administration; type: in vivo; details: mouse, in vivo, iv, single i.v., mg PQ diphosphate equivalent/kg; for MTD: weight loss not exceeding 5% during 5 days, read-out: Maximum tolerated dose (MTD)
Protocol: (§10) The acute toxicity in terms of a single administered dose is determined on female Swiss OF1 mice weighing 22 to 25 g. A series of dilutions of each compound is injected intravenously into groups of 10 mice (0.1 ml per 10 g of weight).
(§11) The lethal dose for 50% of mice (LD50) is determined by linear regression of the logits of the percentage of surviving animals as a function of the logarithm of the dose injected (in mg PQ diphosphate equivalent/kg) (Logit Weighted Transformation, Berkson J., 1953; J. Am. Stat. Assoc. 48, 565-599).
(§12) ^a : The products are administered i.v. to groups of 10 female Swiss
(§13) ^b : Maximum tolerated dose (MTD), defined as the highest dose
(§14) The acute toxicity in terms of a single administered dose is determined under the same conditions and according the protocol of Example 3.

female Swiss OF1 mice = assay: as above; type: in vivo; details: for Maximum tolerated dose (MTD): weight loss not exceeding 5% during 5 days
Protocol: as §10, §11, §12, §13, §14

Plasmodium berghei = assay: Therapeutic index in mice; type: in vivo, P. berghei; details: i.v.; for Therapeutic index (TI): ratio of LD50 to CPD50, mice
Description: The therapeutic index is defined as the ratio of the toxicity, expressed as LD50, to the therapeutic activity, expressed as CPD50, in mice.
^b : The therapeutic index (TI) is the ratio of LD50 to […]

[5] = fetal calf serum 95%, 37° C., 0 h
[6] = single i.v., mg PQ diphosphate equivalent/kg

In the case of `COc1cc(NC(C)CCCN)c2ncccc2c1` (centres unmarked) [Primaquine, 6-methoxy-8-(4-amino-1-methylbutylamino)quinoline, reference compound], the “Methemoglobin (% of total hemoglobin concentration)” value (human red cells; 1 mM) is reported as 1.2 (0.5) %, the “Methemoglobin (% of total hemoglobin concentration)” value (human red cells; 2 mM) is reported as 3.4 (1.8) % and the “Methemoglobin (% of total hemoglobin concentration)” value (human red cells; 5 mM) is reported as 5.8 (0.2) %. For the same compound, the “Methemoglobin (% of total hemoglobin concentration)” value (human red cells; 10 mM) was 11.5 (4.2) %, the “Methemoglobin (% of total hemoglobin concentration)” value (human red cells; 10 mM, listed as PQ) was 11.5% and the “Time for which concentration in red cells is maintained” value (human erythrocytes) was “at least one hour”. For the same compound, the “Concentration combined with erythrocytes (% initial concentration)” value (human erythrocytes; 5 min) was 17.7 (1.2) %, the “Concentration combined with erythrocytes (% initial concentration)” value (human erythrocytes; 5 min, listed as PQ) was 18% and the “Concentration combined with erythrocytes (% initial concentration)” value (human erythrocytes; 10 min) was 18.0 (3.4) %. For the same compound, the “Concentration combined with erythrocytes (% initial concentration)” value (human erythrocytes; 60 min) was 18.8 (0.2) %, the “Accumulation in erythrocytes” value (human erythrocytes) was “taken up rapidly by erythrocytes” and the hemolysis at 1 h, 1000 µM [1] was 2.1%. For the same compound, the hemolysis at 1 h, 2000 µM ([1]; 2 mM) was 2.3%, the hemolysis at 1 h, 5000 µM [1] was 2.8% and the hemolysis at 1 h, 10000 µM ([1]; 10 mM) was 4.7%. The remaining at 1 h ([2]; bovine, fetal calf serum, fetal calf serum 95%, 37° C., 1 h, read-out: Relative concentration of compound (% of initial concentration)) was 98%, the remaining at 2 h ([2]; bovine, fetal calf serum, fetal calf serum 95%, 37° C., 2 h, read-out: Relative concentration of compound (% of initial concentration)) was 87% and the remaining at 3 h ([2]; bovine, fetal calf serum, fetal calf serum 95%, 37° C., 3 h, read-out: Relative concentration of compound (% of initial concentration)) was 77%. The remaining at 6 h ([2]; bovine, fetal calf serum, fetal calf serum 95%, 37° C., 6 h, read-out: Relative concentration of compound (% of initial concentration)) was 34%, the “Relative concentration of compound (% of initial concentration)” value [2, 5] was 100% and the “Second HPLC peak (Y) from primaquine” value [2, 5] was 0%. For the same compound, the “Second HPLC peak (Y) from primaquine” value ([2]; fetal calf serum 95%, 37° C., 1 h) was 0%, the “Second HPLC peak (Y) from primaquine” value ([2]; fetal calf serum 95%, 37° C., 2 h) was 5% and the “Second HPLC peak (Y) from primaquine” value ([2]; fetal calf serum 95%, 37° C., 3 h) was 10%. For the same compound, the “Second HPLC peak (Y) from primaquine” value ([2]; fetal calf serum 95%, 37° C., 6 h) was 11%, the “Second HPLC peak (Y) from primaquine” value ([2]; fetal calf serum 95%, 37° C., 24 h) was 5% and the “Relative concentration of compound (% of initial concentration)” value ([2]; fetal calf serum 95%, 37° C., 24 h, 1440 min) was 2%. For the same compound, the “Relative concentration of compound (% of initial concentration)” value ([2]; fetal calf serum 95%, 37° C., 24 h, listed as primaquine, 1440 min) was 7%, the “Second peak (Y), maximum” value ([2]; fetal calf serum, after 2 hours' incubation) was no more than 10% and the “Stability in the presence of serum” value ([2]; 37° C.) was “unstable”. For the same compound, the “Relative concentration of compound (% of initial concentration)” value (lysosomal enzymes) was 100%, the remaining at 1 h [3] was 94% and the remaining at 2 h [3] was 96%. The remaining at 3 h [3] was 84%, the remaining at 6 h [3] was 87% and the remaining at 24 h [3] was 68%. For the same compound, the MTD [4] was 24 mg/kg, the “Maximum tolerated dose (MTD)” value (female Swiss OF1 mice; [6]) was 24 (2.1) mg/kg and the “Therapeutic index (TI)” value (Plasmodium berghei) was 1.7.

With `COc1cc(NC(C)CCCNC(=O)CC[C@H](N)C(=O)O)c2ncccc2c1` (stereo partly drawn) [gGLU-PQ, N-(γ-L-glutamyl)primaquine] the “Methemoglobin (% of total hemoglobin concentration)” value (human red cells; 1 mM) was 1.4 (0.0) %, the “Methemoglobin (% of total hemoglobin concentration)” value (human red cells; 5 mM) was 5.3 (0.0) % and the “Accumulation in erythrocytes” value (human erythrocytes) was “not accumulated in erythrocytes”. For the same compound, the hemolysis at 1 h, 1000 µM [1] was 0.27%, the hemolysis at 1 h, 5000 µM [1] was 0.58% and the remaining at 1 h ([2]; bovine, fetal calf serum 95%, 37° C., 1 h, read-out: Relative concentration of compound (% of initial concentration)) was 96%. The metabolised at 1 h ([2]; bovine, fetal calf serum 95%, 37° C., 1 h, read-out: Relative concentration of primaquine (PQ) from derivative) was 3%, the remaining at 2 h ([2]; bovine, fetal calf serum 95%, 37° C., 2 h, read-out: Relative concentration of compound (% of initial concentration)) was 95% and the metabolised at 2 h ([2]; bovine, fetal calf serum 95%, 37° C., 2 h, read-out: Relative concentration of primaquine (PQ) from derivative) was 4%. The remaining at 3 h ([2]; bovine, fetal calf serum 95%, 37° C., 3 h, read-out: Relative concentration of compound (% of initial concentration)) was 94%, the metabolised at 3 h ([2]; bovine, fetal calf serum 95%, 37° C., 3 h, read-out: Relative concentration of primaquine (PQ) from derivative) was 4% and the remaining at 6 h ([2]; bovine, fetal calf serum 95%, 37° C., 6 h, read-out: Relative concentration of compound (% of initial concentration)) was 83%. For the same compound, the metabolised at 6 h ([2]; bovine, fetal calf serum 95%, 37° C., 6 h, read-out: Relative concentration of primaquine (PQ) from derivative) was 4%, the remaining at 24 h ([2]; bovine, fetal calf serum 95%, 37° C., 24 h, read-out: Relative concentration of compound (% of initial concentration)) was 51% and the metabolised at 24 h ([2]; bovine, fetal calf serum 95%, 37° C., 24 h, read-out: Relative concentration of primaquine (PQ) from derivative) was 4%. For the same compound, the “Duration of stability in serum” value ([2]; fetal calf serum) was “at least 3 hours”, the “Relative concentration of compound (% of initial concentration)” value [2, 5] was 98 (1) % and the “Relative concentration of primaquine (PQ) from derivative” value [2, 5] was 2 (1) %. For the same compound, the “Stability in the presence of serum” value ([2]; 37° C.) was “a gradual decrease in the relative concentration is observed after 6 hours' incubation”, the “Relative concentration of primaquine (PQ) from derivative” value (lysosomal enzymes; pH 4.5, 0 h) was 0% and the “Relative concentration of compound (% of initial concentration)” value (lysosomal enzymes) was 100%. The metabolised at 1 h ([3]; liver lysosomal enzyme fraction, pH 4.5, 1 h, read-out: Relative concentration of primaquine (PQ) from derivative) was 0%, the metabolised at 2 h ([3]; liver lysosomal enzyme fraction, pH 4.5, 2 h, read-out: Relative concentration of primaquine (PQ) from derivative) was 0% and the metabolised at 3 h ([3]; liver lysosomal enzyme fraction, pH 4.5, 3 h, read-out: Relative concentration of primaquine (PQ) from derivative) was 0%. It also gave a metabolised at 6 h ([3]; liver lysosomal enzyme fraction, pH 4.5, 6 h, read-out: Relative concentration of primaquine (PQ) from derivative) of 0%, a metabolised at 24 h ([3]; liver lysosomal enzyme fraction, pH 4.5, 24 h, read-out: Relative concentration of primaquine (PQ) from derivative) of 0% and a remaining at 1 h [3] of 104%. It also gave a remaining at 2 h [3] of 95%, a remaining at 3 h [3] of 98% and a remaining at 6 h [3] of 101%. It also gave a remaining at 24 h [3] of 105%, an LD50 [4] of 169 mg/kg and an MTD [4] of 117 mg/kg. The “Fold less toxic than PQ” value (female Swiss OF1 mice; mice, i.v.) was “at least 5 -fold”, the LD50 (female Swiss OF1 mice; [6]) was 169 (9) mg/kg and the “Maximum tolerated dose (MTD)” value (female Swiss OF1 mice; [6]) was 117 (13) mg/kg. For the same compound, the “Therapeutic index, fold higher than that of PQ” value (Plasmodium berghei; mice) was “at least 11 -fold” and the “Therapeutic index (TI)” value (Plasmodium berghei) was > 19 and 19.4.
